Reference: the NIST ThermoML archive (doi:10.1016/j.jct.2018.05.012)

Experiment: xn = mol fraction of the nth substance listed
Conditions: 100 kPa, Liquid; for speed of sound: Frequency=3 MHz, Single path-length method; for mass density: Vibrating tube method

C1COCO1 [1,3-dioxolane] + C1COCCO1
Conditions	mass density, 293.15 K [kg/m3]	mass density, 298.15 K [kg/m3]	mass density, 303.15 K [kg/m3]	mass density, 308.15 K [kg/m3]	speed of sound, 293.15 K [m/s]	speed of sound, 298.15 K [m/s]	speed of sound, 303.15 K [m/s]	speed of sound, 308.15 K [m/s]
x1 = 0.1184	1036.5	1030.8	1025.1	1019.3	1367	1345.1	1323.5	1301.6
x1 = 0.1694	1037.8	1032.1	1026.4	1020.6	1366.7	1344.8	1323.1	1301.2
x1 = 0.2145	1039	1033.3	1027.5	1021.7	1366.4	1344.5	1322.8	1300.8
x1 = 0.2632	1040.4	1034.6	1028.8	1022.9	1366.1	1344.1	1322.4	1300.5
x1 = 0.3154	1041.8	1036.1	1030.2	1024.3	1365.8	1343.8	1322.1	1300.1
x1 = 0.3689	1043.3	1037.6	1031.7	1025.8	1365.5	1343.5	1321.7	1299.7
x1 = 0.4184	1044.8	1039	1033.1	1027.2	1365.2	1343.1	1321.3	1299.4
x1 = 0.4697	1046.3	1040.5	1034.6	1028.6	1364.9	1342.8	1321	1299
x1 = 0.5124	1047.6	1041.8	1035.8	1029.9	1364.6	1342.5	1320.7	1298.7
x1 = 0.5674	1049.4	1043.6	1037.5	1031.5	1364.3	1342.1	1320.3	1298.3
x1 = 0.6282	1051.4	1045.5	1039.5	1033.4	1363.9	1341.7	1319.8	1297.9
x1 = 0.6734	1052.9	1047	1040.9	1034.8	1363.6	1341.4	1319.5	1297.5
x1 = 0.7231	1054.6	1048.7	1042.6	1036.5	1363.3	1341	1319.1	1297.1
x1 = 0.7626	1055.9	1050.1	1043.9	1037.8	1363	1340.7	1318.8	1296.8
x1 = 0.7992	1057.2	1051.4	1045.2	1039	1362.7	1340.4	1318.5	1296.5
x1 = 0.8486	1059	1053.1	1046.9	1040.7	1362.4	1340	1318.1	1296.1
x1 = 0.8815	1060.2	1054.3	1048.1	1041.9	1362.1	1339.8	1317.8	1295.8
x1 = 0.9102	1061.3	1055.4	1049.1	1042.9	1361.9	1339.5	1317.5	1295.5
